In patent publication US20020128434A1, “Alpha-(1,3-dicarbonylenol ether) methyl ketones as cysteine protease inhibitors” (priority 1993, published 2002):
Read-outs that look alike come from different tables or passages of the source.

Tests used:
[1] = target: T1, Cathepsin B, purified from human liver (Homo sapiens, UniProt P07858); assay: In vitro evaluation of inhibitors with purified cathepsin B; format: biochemical
T1 construct: Cathepsin B, purified from human liver; purchased Enzyme Systems Products (Dublin, Calif.); host or cells: human liver (tissue-purified)
Description: Enzyme: Cathepsin B, purified from human liver, is from Enzyme Systems Products (Dublin, Calif.). The activity is 50 mU per ml at 30° C., in 52 mM sodium phosphate, pH 6.2, 31 mM DTT, 2.1 mM EDTA, with 0.2 mM Z—Arg—Arg-7-amino-4-trifluoromethyl-coumarin as a substrate. Specific activity is 8330 mU per mg protein. (1 mU=1 nmol per min.)
Substrate Boc—Leu—Arg—Arg-7-amino-4-trifluoromethyl-coumarin-2HBr is from Enzyme Systems Products (Dublin, Calif.) and is known to be a specific substrate for cathepsin B. A 20 mM solution is made in DMF and stored at […].
Candidate inhibitors are dissolved in DMF and diluted to 20 mM and stored at […]. Dilutions are made in assay buffer.
The percent inhibition and the inhibitor concentration at which the enzyme is 50% inhibited (IC50) are determined as follows. Five μl of assay buffer (50 mM potassium phosphate pH 6.2, 2 mM EDTA, 5 mM DTT) on ice for 30 min. The inhibition is initiated by the addition of […] inhibitor each to the 480 μl aliquots. The 485 μl aliquot with enzyme is used as a control and thus receives no inhibitor. The enzyme/inhibitor mixtures are incubated 10 min. on ice and assayed for cathepsin B activity as follows:
Cathepsin B assay: To 490 μl of pre-incubated inhibitor/enzyme mixtures in assay buffer in 0.5 ml cuvette at 37° is added 10 μl of the substrate. Final inhibitor concentrations become 2000 nM, 200 nM, and 20 nM for the 200 μM, 20 μM and 2 μM stock concentrations, respectively. Activity is followed by release of free AFC over 5 min. The change in fluorescence is (fluorescence units at t=6)−(fluorescence units at t=1) with a Perkin-Elmer LS-5B spectrofluorometer (ex=400 nm, em=505 nm). The percent inhibition is determined by comparing the change in fluorescence units of the three sample concentrations of inhibited enzyme to the change in fluorescence units of the control enzyme. The percent inhibition is calculated as:
100−(fl. units of sample/fl. units of control×100).
The IC50 is ascertained by plotting percent inhibition vs. inhibitor concentration on the log scale. The IC50 is the concentration of the inhibitor (nM) at which the enzyme is inhibited by 50%.

[2] = inhibitors with other heterocycles, read-out: IC5 Cathepsin B Inhibition
[3] = purified cathepsin B, read-out: IC50 Cat B

Row | SMILES | IC50 [1, 2] | IC50 [1, 3] | melting point
1 | CCC1OC(=O)C(OCC(=O)C(CCc2ccccc2)NC(=O)C(Cc2ccccc2)NC(=O)N2CCOCC2)=C1C (centres unmarked) | 229 nM |  | 
2 | Cc1ccc2cccc(OCC(=O)[C@H](CCc3ccccc3)NC(=O)[C@H](Cc3ccccc3)NC(=O)N3CCOCC3)c2n1 | 219 nM |  | 
3 | Cc1cc(OCC(=O)[C@H](CCc2ccccc2)NC(=O)[C@H](Cc2ccccc2)NC(=O)N2CCOCC2)nc2ccccc12 | 282 nM |  | 
4 | O=C(COc1ncnc2ccccc12)[C@H](CCc1ccccc1)NC(=O)[C@H](Cc1ccccc1)NC(=O)N1CCOCC1 | 1800 nM |  | 
5 | O=C(COc1nc2ccccc2[nH]1)[C@H](CCc1ccccc1)NC(=O)[C@H](Cc1ccccc1)NC(=O)N1CCOCC1 | 569 nM |  | 
6 | O=C(COc1nccc2ccccc12)[C@H](CCc1ccccc1)NC(=O)[C@H](Cc1ccccc1)NC(=O)N1CCOCC1 | 457 nM |  | 
7 | Cc1cc(=O)oc2cc(OCC(=O)[C@H](CCc3ccccc3)NC(=O)[C@H](Cc3ccccc3)NC(=O)N3CCOCC3)ccc12 | 4500 nM |  | 
8 | O=C(COc1ccc2ccc(=O)oc2c1)[C@H](CCc1ccccc1)NC(=O)[C@H](Cc1ccccc1)NC(=O)N1CCOCC1 | 4500 nM |  | 
9 | O=C(COc1cc2ccccc2o1)[C@H](CCc1ccccc1)NC(=O)[C@H](Cc1ccccc1)NC(=O)N1CCOCC1 | 252 nM |  | 
10 | Cc1occc(=O)c1OCC(=O)[C@H](CCc1ccccc1)NC(=O)[C@H](Cc1ccccc1)NC(=O)N1CCOCC1 | 385 nM |  | 
11 | O=C(COc1nc2ccccc2s1)[C@H](CCc1ccccc1)NC(=O)[C@H](Cc1ccccc1)NC(=O)N1CCOCC1 | 21000 nM |  | 
12 | O=C(COc1cccs1)[C@H](CCc1ccccc1)NC(=O)[C@H](Cc1ccccc1)NC(=O)N1CCOCC1 | 79000 nM |  | 
13 | CCOC(=O)c1c(C)noc1OCC(=O)[C@H](CCc1ccccc1)NC(=O)[C@H](Cc1ccccc1)NC(=O)N1CCOCC1 | 2190 nM |  | 
14 | C[n+]1ccc2ccccc2c1OCC(=O)[C@H](CCc1ccccc1)NC(=O)[C@H](Cc1ccccc1)NC(=O)N1CCOCC1 | 5600 nM |  | 
15 | O=C1CC(=O)C(c2ccccc2)=C1OCC(=O)[C@H](CCc1ccccc1)NC(=O)[C@H](Cc1ccccc1)NC(=O)N1CCOCC1 [Compound 1, N-Morpholinecarbonyl-L-phenylalanyl-L-homophenylalanine-α-(4-oxy-5-phenyl-4-cyclopentene-1,3-dione) methyl ketone] |  | 94 nM | 
16 | O=C1OC(C(O)CO)C(OCC(=O)C(CCc2ccccc2)NC(=O)C(Cc2ccccc2)NC(=O)N2CCOCC2)=C1O [Compound 2, N-Morpholinecarbonyl-L-phenylalanyl-L-homophenylalanyl-α-(4-ascorbityl) methyl ketone] |  | 141 nM | 
17 | CC1CC(OCC(=O)C(CCc2ccccc2)NC(=O)C(Cc2ccccc2)NC(=O)N2CCOCC2)=CC(=O)O1 [Compound 4, N-Morpholinecarbonyl-L-phenylalanyl-L-homophenylalanyl-α-(4-oxy-5,6-dihydro-6-methyl-2H-pyran-2-one) methyl ketone] |  | 567 nM | 74 to 78 °C
18 | Cc1cc(OCC(=O)[C@H](CCc2ccccc2)NC(=O)[C@H](CC(C)C)NC(=O)N2CCOCC2)cc(=O)o1 [Compound 5] |  | 400 nM | 70 to 75 °C
19 | Cc1cc(OCC(=O)[C@H](CCCCN)NC(=O)[C@H](Cc2ccccc2)NC(=O)N2CCOCC2)cc(=O)o1 [Compound 7] |  | 25 nM | 151 to 155 °C
20 | COc1ccc(C[C@H](NC(=O)N2CCOCC2)C(=O)N[C@@H](CCCCN)C(=O)COc2cc(C)oc(=O)c2)cc1 [Compound 8] |  | 83 nM | 140 to 142 °C
21 | COc1ccc(C[C@H](NC(=O)N2CCOCC2)C(=O)N[C@@H](CCCCN)C(=O)COC2=C(c3ccccc3)C(=O)OC2)cc1 [Compound 10, N-Morpholinecarbonyl-L-tryosyl (O-methyl)-L-lysyl-(4-oxy-3-phenyl-dihydrofuran-2-one) methyl ketone] |  | 8 nM | 140 to 142 °C
